Patent publication USRE38330E1, “Preventing and reversing advanced glycosylation endproducts” (Alteon Inc., priority 1995, dated 2003)
Structures can show the parent of a compound that is named as a salt. Where two headings read alike, the source gives them in different places.

What was measured:
[1] = biological target: T1, cross-linking of glycated bovine serum albumin (AGE-BSA) to the rat tail tendon collagen (Bos taurus, UniProt P02769); test: Inhibition of cross-linking of glycated BSA (AGE-BSA) to rat tail tendon collagen coated 96-well plate (ELISA); assay type: biochemical
T1 construct: glycated bovine serum albumin (AGE-BSA); from tissue; host or cells: collagen from rat tail tendon; BSA from bovine serum, glycated in house
T1 sequence (P02769 25-607): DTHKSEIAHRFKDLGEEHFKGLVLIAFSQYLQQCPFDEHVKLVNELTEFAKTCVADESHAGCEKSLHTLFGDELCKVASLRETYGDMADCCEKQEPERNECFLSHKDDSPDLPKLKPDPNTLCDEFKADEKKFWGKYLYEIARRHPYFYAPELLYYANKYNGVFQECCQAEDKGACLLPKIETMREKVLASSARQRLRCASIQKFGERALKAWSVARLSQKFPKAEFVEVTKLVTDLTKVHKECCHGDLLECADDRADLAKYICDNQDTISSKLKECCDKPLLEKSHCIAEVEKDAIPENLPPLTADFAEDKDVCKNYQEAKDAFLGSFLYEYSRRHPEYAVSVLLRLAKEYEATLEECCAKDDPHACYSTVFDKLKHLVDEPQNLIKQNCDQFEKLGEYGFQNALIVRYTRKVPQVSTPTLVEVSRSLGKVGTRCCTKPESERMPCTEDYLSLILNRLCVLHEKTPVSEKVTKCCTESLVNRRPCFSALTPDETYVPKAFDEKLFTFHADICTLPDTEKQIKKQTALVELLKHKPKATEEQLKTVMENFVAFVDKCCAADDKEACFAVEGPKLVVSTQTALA
Experimental: The cross-linked AGE-BSA to the tail tendon coated plate was then quantitated by the polyclonal antibody raised against AGE-RNase.
The % inhibition of each test compound was calculated as follows.

[2] = biological target: T2, AGE-BSA previously crosslinked to the collagen (Bos taurus, UniProt P02769); test: Sandwich enzyme immunoassay for breaking of AGE moieties from AGE-BSA crosslinked to collagen (AGE breaker assay); assay type: biochemical, bovine; rat; conditions: for IC50: AGE breaking, 16 hours 37° C.
T2 construct: Type V BSA (bovine serum albumin); purchased Calbiochem (BSA Type V); Collaborative Biomedical Products (Biocoat rat tail collagen type I plates)
T2 sequence (P02769 25-607): as above
T2 sequence (P02454 152-1207 partner limits assumed): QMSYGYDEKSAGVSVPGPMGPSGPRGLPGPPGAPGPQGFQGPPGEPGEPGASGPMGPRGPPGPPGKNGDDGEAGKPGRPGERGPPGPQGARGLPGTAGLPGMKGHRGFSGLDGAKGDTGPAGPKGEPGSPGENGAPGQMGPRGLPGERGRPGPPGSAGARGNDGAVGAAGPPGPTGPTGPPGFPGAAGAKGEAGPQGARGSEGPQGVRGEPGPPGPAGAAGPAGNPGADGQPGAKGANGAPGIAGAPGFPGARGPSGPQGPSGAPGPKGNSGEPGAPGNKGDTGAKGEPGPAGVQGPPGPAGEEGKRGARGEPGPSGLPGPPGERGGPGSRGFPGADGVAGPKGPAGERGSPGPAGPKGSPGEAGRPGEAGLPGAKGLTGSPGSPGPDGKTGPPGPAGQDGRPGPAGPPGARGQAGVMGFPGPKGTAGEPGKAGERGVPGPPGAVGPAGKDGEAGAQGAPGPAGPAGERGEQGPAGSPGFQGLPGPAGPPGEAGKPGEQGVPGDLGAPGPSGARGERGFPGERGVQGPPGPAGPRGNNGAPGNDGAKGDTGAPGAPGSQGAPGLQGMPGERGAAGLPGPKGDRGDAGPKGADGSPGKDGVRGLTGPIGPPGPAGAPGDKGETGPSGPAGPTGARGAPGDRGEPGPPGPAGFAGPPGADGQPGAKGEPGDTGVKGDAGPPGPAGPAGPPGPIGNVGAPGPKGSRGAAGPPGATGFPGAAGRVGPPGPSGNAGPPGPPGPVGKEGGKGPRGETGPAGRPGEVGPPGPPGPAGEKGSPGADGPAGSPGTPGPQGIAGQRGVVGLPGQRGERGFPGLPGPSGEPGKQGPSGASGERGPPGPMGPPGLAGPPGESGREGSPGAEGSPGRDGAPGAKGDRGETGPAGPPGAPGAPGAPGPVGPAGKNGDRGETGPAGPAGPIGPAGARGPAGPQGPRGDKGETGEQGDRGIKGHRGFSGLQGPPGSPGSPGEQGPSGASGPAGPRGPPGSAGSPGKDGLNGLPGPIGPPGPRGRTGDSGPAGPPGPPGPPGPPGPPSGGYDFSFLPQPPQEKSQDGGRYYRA
T2 sequence (P02466 86-1125 partner limits assumed): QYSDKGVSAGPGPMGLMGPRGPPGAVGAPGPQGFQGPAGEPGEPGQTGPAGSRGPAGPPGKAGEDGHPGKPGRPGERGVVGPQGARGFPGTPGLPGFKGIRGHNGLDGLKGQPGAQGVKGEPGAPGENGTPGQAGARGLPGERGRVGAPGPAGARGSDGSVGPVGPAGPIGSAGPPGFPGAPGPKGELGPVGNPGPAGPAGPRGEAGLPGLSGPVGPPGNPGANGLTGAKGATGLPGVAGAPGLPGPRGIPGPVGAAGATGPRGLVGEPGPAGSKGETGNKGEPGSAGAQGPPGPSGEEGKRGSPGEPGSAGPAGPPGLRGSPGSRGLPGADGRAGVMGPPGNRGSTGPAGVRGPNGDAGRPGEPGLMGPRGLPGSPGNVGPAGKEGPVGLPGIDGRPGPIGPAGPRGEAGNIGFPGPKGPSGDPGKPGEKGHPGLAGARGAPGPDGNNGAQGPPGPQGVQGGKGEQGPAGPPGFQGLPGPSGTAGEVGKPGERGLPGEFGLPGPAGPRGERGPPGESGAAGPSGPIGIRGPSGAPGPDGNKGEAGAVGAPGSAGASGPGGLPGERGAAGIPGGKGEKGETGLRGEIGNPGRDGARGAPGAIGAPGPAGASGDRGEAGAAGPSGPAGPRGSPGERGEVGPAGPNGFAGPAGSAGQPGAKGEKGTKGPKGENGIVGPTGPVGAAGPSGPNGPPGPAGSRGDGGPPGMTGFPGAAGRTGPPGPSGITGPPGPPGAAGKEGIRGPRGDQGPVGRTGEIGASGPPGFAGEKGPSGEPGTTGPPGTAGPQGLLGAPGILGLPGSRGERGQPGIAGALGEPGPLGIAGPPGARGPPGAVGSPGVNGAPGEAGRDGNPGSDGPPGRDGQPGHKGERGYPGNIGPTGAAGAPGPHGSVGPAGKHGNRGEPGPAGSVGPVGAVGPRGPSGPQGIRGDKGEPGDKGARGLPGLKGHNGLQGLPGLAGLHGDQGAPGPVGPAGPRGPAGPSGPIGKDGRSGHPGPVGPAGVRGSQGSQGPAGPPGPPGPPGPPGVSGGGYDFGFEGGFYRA
Experimental: The present invention also involves a novel sandwich enzyme immunoassay used to ascertain the ability of test compounds to “break” or reverse already formed advanced glycosylation endproducts by detecting the breaking of AGE (Advanced glycosylation endproduct) moieties from AGE-crosslinked protein. This assay comprises:
a) incubation of AGE-modified bovine serum albumin (AGE-BSA) on collagen-coated wells of microtiter plates for a period of 2-6 hours at a temperature of 37° C.;
b) washing of the wells with PBS-Tween;
c) application of the test compounds to the washed wells of step b;
d) incubation of the test compounds applied to the washed wells for an additional 12-24 hours at a temperature of about 37° C.; and
e) detection of the AGE-breaking using an antibody raised against AGE-ribonuclease or cross-link breaking with an antibody against BSA.
In order to ascertain the ability of the compounds of the instant invention to “break” or reverse already formed advanced glycosylation endproducts, a novel sandwich enzyme immunoassay was developed which detects breaking of AGE (Advanced glycosylation endproduct) moieties from AGE-crosslinked protein. The assay utilizes collagen-coated 96 will microtiter plates that are obtained commercially. AGE-modified protein (AGE-BSA) is incubated on the collagen-coated wells for four hours, is washed off the wells with PBS-Tween and the test compounds are added. Following an incubation period of 16 hours (37° C.) AGE-breaking is detected using an antibody raised against AGE-ribonuclease or with an antibody against BSA. […] Details of the assay are as follows:
1. AGE-BSA stock solutions were prepared as follows. Sodium phosphate buffer (0.4M) was prepared by dissolving 6 grams of monobasic sodium phosphate in 100 ml of distilled water, 7 grams of dibasic sodium phosphate (0.4M) in 100 ml of distilled water and adjusting the pH of the dibasic solution to 7.4 with the monobasic solution. Sodium azide (0.02 grams) was added per 100 ml volume to inhibit bacterial growth. The BSA solution was prepared as follows: 400 mg of Type V BSA (bovine serum albumin) was added for each ml of sodium phosphate buffer (above). A 400 mM glucose solution was prepared by dissolving […] of dextrose in 100 ml of sodium phosphate buffer (above). The BSA and glucose solutions were mixed 1:1 and incubated at 37° C. for 12 weeks. The pH of the incubation mixture was monitored weekly and adjusted to pH 7.4 if necessary. After 12 weeks, the AGE-BSA solution was dialyzed against PBS for 48 hours with four buffer changes, each at a 1:500 ratio of solution to dialysis buffer. Protein concentration was determined by the micro-Lowry method. The AGE-BSA stock solution was aliquoted and stored at −20° C.
2. Working solutions for crosslinking and breaking studies were prepared as follows. Test compounds were dissolved in PBS and the pH was adjusted to pH 7.4 if necessary. AGE-BSA stock solution was diluted in PBS to measure maximum crosslinking and in the inhibitor solution for testing inhibitory activity of compounds. The concentration of AGE-BSA necessary to achieve the optimum sensitivity was determined by initial titration of each lot of AGE-BSA.
3. Wash buffer (“PBS-Tween”) was prepared as follows. PBS was prepared by dissolving the following salts in one liter of distilled water: NaCl, 8 grams; KCl, 0.2 gram, KH2PO4. […] Tween-20 was added to a final concentration of 0.05% (vol/vol).
4. Substrates for detection of secondary antibody binding were prepared by diluting the HRP substrate buffer 1:10 in distilled water and mixing with ABTS chromogen 1:50 just prior to use.
1. Biocoat plates were blocked With 300 μl of “Superbloc”. Plates were blocked for one hour at room temperature and were washed with PBS-Tween three times with the Dynatech platewasher before addition of test reagents.
2. Each experiment was set up in the following manner.

[3] = read-out: % Inhibition Anti-AGE (at mM)
[4] = read-out: % Inhibition Anti-BSA (at mM)
[5] = detection with anti-AGE-RNase antibody, read-out: IC50 (mM) Anti-AGE
[6] = detection with anti-BSA antibody, read-out: IC50 (mM) Anti-BSA

SMILES: COC(=O)C[n+]1csc(C)c1.[Br-] [3-(2-methoxy-2-oxoethyl)-5-methyl-thiazolium bromide]
- IC50 [1]: 73 µM
- inhibition at 30000 µM [2, 3]: 72%
- inhibition at 30000 µM [2, 4]: 27%
- melting point: 193 to 194 °C (dec.)

SMILES: Cc1c(CCO)sc[n+]1CC(=O)c1ccc(Br)cc1 (as salt: bromide) [3-(2-[4^1-bromophenyl]-2-oxoethyl)-4-methyl-5-(2-hydroxyethyl)thiazolium bromide]
- melting point: 251 to 252 °C (dec.)

SMILES: Cc1csc[n+]1CC(=O)c1ccccc1.[Br-] [3-(2-phenyl-2-oxoethyl)-4-methylthiazolium bromide]
- IC50 [1]: 10300 µM
- IC50 [2, 5]: 230 µM
- IC50 [2, 6]: 300 µM
- melting point: 218 to 220 °C (dec.)

SMILES: CC[n+]1csc(CCO)c1C.[Br-]
- melting point: 84 to 85 °C

SMILES: COC(=O)C[n+]1c(N)sc2ccccc21.[Br-]
- melting point: 236 to 237 °C

SMILES: Cc1c(CCO)sc[n+]1CC(N)=O [3-(2-amino-2-oxoethyl)-4-methyl-5-(2-hydroxyethyl)thiazolium bromide]
- IC50 [1]: 1260 µM
- IC50 [2, 5]: 12 µM
- IC50 [2, 6]: 120 µM

SMILES: NC(=O)C[n+]1csc2ccccc21.[Br-] [3-(2-amino-2-oxoethyl)-benzothiazolium bromide]
- IC50 [1]: 618 µM
- IC50 [2, 5]: 140 µM
- IC50 [2, 6]: 520 µM
- melting point: 222 to 223 °C

SMILES: Cc1sc[n+](CC(N)=O)c1C.[Br-] [3-(2-amino-2-oxoethyl)-4,5-dimethyl-thiazolium bromide]
- IC50 [1]: 338 µM
- inhibition at 30000 µM [2, 3]: 69%
- inhibition at 30000 µM [2, 4]: 75%
- melting point: 147 to 148 °C

SMILES: O=C(C[n+]1ccsc1)c1ccc(Br)cc1.[Br-] [3-(2-[4^1-bromophenyl]-2-oxoethyl)-thiazolium bromide]
- % Inhibition Anti-AGE (at mM) ([2]; at 30 mM, detection with anti-AGE-RNase antibody): 76%
- % Inhibition Anti-BSA (at mM) ([2]; at 30 mM, detection with anti-BSA antibody): 25%

SMILES: CC(=O)C[n+]1ccsc1.[Cl-] [3-(2-methyl-2-oxoethyl)thiazolium chloride]
- IC50 ([2]; IC50 (mM) Anti-AGE, detection with anti-AGE-RNase antibody): 0.036 µM
- IC50 ([2]; IC50 (mM) Anti-BSA, detection with anti-BSA antibody): 260 µM
- melting point: 178 to 179 °C

SMILES: COC(=O)C[n+]1ccsc1N.[Br-]
- melting point: 191 to 192 °C

SMILES: Cc1c[n+](CC(N)=O)cs1.[Br-] [3-(2-amino-2-oxoethyl)-5-methyl-thiazolium bromide]
- IC50 [1]: 28.9 µM
- melting point: 179 to 180 °C

SMILES: CC(=O)OCCc1sc[n+](CC(N)=O)c1C.[Br-]
- melting point: 233 to 234 °C

SMILES: Cc1c(CCO)sc[n+]1Cc1ccccc1.[Cl-] [3-benzyl-5-(2-hydroxyethyl)-4-methyl thiazolium chloride]
- IC50 [2, 5]: 420 µM
- IC50 [2, 6]: 550 µM
- melting point: 144 to 146 °C

SMILES: COC(=O)C[n+]1csc(CCOC(C)=O)c1C.[Br-]
- melting point: 217 to 218 °C

SMILES: NC(=O)C[n+]1c(N)sc2ccccc21.[Br-]
- melting point: 234 to 235 °C

SMILES: O=C(C[n+]1ccsc1)c1ccccc1 [3-(2-phenyl-2-oxoethyl)thiazolium bromide]
- IC50 [2, 5]: 20 µM
- IC50 [2, 6]: 14 µM
